# Laboratory results reported in US11248017B2, “Anti-inflammatory composition including novel kaempferol-based compound derived from post-fermented tea” (AMOREPACIFIC CORPORATION, priority 2017, dated 2022).
# How the values were obtained:
# PGE2 (Prostaglandin E2) = test: PGE2 production inhibition experiment (ELISA); format: cell-based, Human; conditions: for PGE2: human fibroblasts, 500 μM H2O2 24 h, then test substance (33: 100 μg/ml) 48 h, culture medium
# Experimental: (§1) Human fibroblasts (PromoCell, Germany) were seeded into 6-well culture plates at a concentration of 1×10^5 cells and incubated in 37° C., 5% CO2 incubator for 24 hours. After 500 μM of H2O2 was treated in a well and stimulated for 24 hours, the kaempferol3-O-[2-O″-(E)-p-coumaroyl][beta-D-glucopyranosyl-(1-3)-O-alpha-L-rhamnopyranosyl-(1→6)-O-beta-D-glucopyranoside](‘new material 33’) was treated at a concentration of 100 μg/ml each, and was reacted for 48 hours. After completion of the reaction, the culture medium was collected and subjected to ELISA analysis. At this time, α-bisabolol, which is a material frequently used as an anti-inflammation agent and an abirritant, was used as a control. PGE2 used Assay Design's kit and IL-6 and IL-8 used Endogen's kit, and the experiment was conducted according to the method specified in each company's manual. (‘33’ means new material 33) Inhibitory effect={1−(test sample−control)/(H2O2−control)}×100 <Equation 1>
# skin = test: Skin accumulation stimulation experiment, human repeated insult patch test (HRIPT); format: in vivo; parameters: key to skin reactivity (ICDRG criteria): −: negative (no response); ±: doubtful or slight erythema, etc.; +: weak reaction (which is accompanied with no phlyctenule), erythema, papule; ++: severe reaction (which is accompanied with phlyctenule), erythema, papule, phlyctenule; +++: strong reaction, bullae reaction; conditions: for Average reactivity: 9 patches over 3 weeks, 15 subjects, less than 3 = stable composition
# Experimental: Human repeated insult patch tests (HRIPT) were performed to confirm the skin accumulation stimulation of the kaempferol3-O-[2-O″-(E)-p-coumaroyl][beta-D-glucopyranosyl-(1→3)-O-alpha-L-rhamnopyranosyl-(1→6)-O-beta-D-glucopyranoside] and to calculate the concentration range available for the skin.
# Specifically, 15 healthy adult subjects were randomly selected, and the test composition (the skin composition including an emulsifier, a stabilizer, purified water, etc. in addition to the compound) containing 0.5 wt %, 1 wt %, and 3 wt % of the compound was added dropwise by 20 μl per chamber (IQ chamber, Epitest Ltd, Finland). After 24 hours from patching the upper right part of the back of a subject, it was replaced with the new patch. A total of 9 patches were conducted, three times a week for total 3 weeks, in such manner, the skin reactions before and after patch were examined every time, and the skin reactions until 48 hours after removing the final patch were observed, and the average reactivity was observed.
# The skin response was determined according to the criteria of the International Contact Dermatitis Research Group (ICDRG). ‘New material 33’ in the table above is kaempferol3-O-[2-O″-(E)-p-coumaroyl][beta-D-glucopyranosyl-(1→3)-O-alpha-L-rhamnopyranosyl-(1→6)-O-beta-D-glucopyranoside].
# IL-6 (Interleukin 6) = test: IL-6 production inhibition experiment (ELISA); format: cell-based, Human; conditions: for IL-6: human fibroblasts, 500 μM H2O2 24 h, then test substance (33: 100 μg/ml) 48 h, culture medium
# Experimental: as §1
# IL-8 (Interleukin 8) = test: IL-8 production inhibition experiment (ELISA); format: cell-based, Human; conditions: for IL-8: human fibroblasts, 500 μM H2O2 24 h, then test substance (33: 100 μg/ml) 48 h, culture medium
# Experimental: as §1
compound,measurement,setting,value
"C[C@@H]1O[C@@H](OC[C@H]2O[C@@H](Oc3c(-c4ccc(O)cc4)oc4cc(O)cc(O)c4c3=O)[C@H](OC(=O)/C=C/c3ccc(O)cc3)[C@@H](O)[C@@H]2O)[C@H](O)[C@H](O[C@@H]2O[C@H](CO)[C@@H](O)[C@H](O)[C@H]2O)[C@H]1O [new material 33, kaempferol3-O-[2-O″-(E)-p-coumaroyl][beta-D-glucopyranosyl-(1→3)-O-alpha-L-rhamnopyranosyl-(1→6)-O-beta-D-glucopyranoside]]",inhibition at 100 µg/mL,"PGE2 (Prostaglandin E2); Homo sapiens, 100 μg/ml, {1−(test sample−control)/(H2O2−control)}×100, control = a-bisabolol, read-out: Inhibitory Effect according to Equation 1, PGE2",82.1%
same,PGE2,PGE2 (Prostaglandin E2),231 pg/mL
same,effect on PGE2 increased by H2O2,PGE2 (Prostaglandin E2); in words,effect of reducing
same,Number of subjects with + reactivity,"skin; 0.5 wt %, 1st patch",0 person
same,Number of subjects with ++ reactivity,"skin; 0.5 wt %, 1st patch",0 person
same,Number of subjects with ± reactivity,"skin; 0.5 wt %, 1st patch",0 person
same,Number of subjects with + reactivity,"skin; 0.5 wt %, 2nd patch",0 person
same,Number of subjects with ++ reactivity,"skin; 0.5 wt %, 2nd patch",0 person
same,Number of subjects with ± reactivity,"skin; 0.5 wt %, 2nd patch",0 person
same,Number of subjects with + reactivity,"skin; 0.5 wt %, 3rd patch",0 person
same,Number of subjects with ++ reactivity,"skin; 0.5 wt %, 3rd patch",0 person
same,Number of subjects with ± reactivity,"skin; 0.5 wt %, 3rd patch",0 person
same,Number of subjects with + reactivity,"skin; 0.5 wt %, 4th patch",0 person
same,Number of subjects with ++ reactivity,"skin; 0.5 wt %, 4th patch",0 person
same,Number of subjects with ± reactivity,"skin; 0.5 wt %, 4th patch",0 person
same,Number of subjects with + reactivity,"skin; 0.5 wt %, 5th patch",0 person
same,Number of subjects with ++ reactivity,"skin; 0.5 wt %, 5th patch",0 person
same,Number of subjects with ± reactivity,"skin; 0.5 wt %, 5th patch",0 person
same,Number of subjects with + reactivity,"skin; 0.5 wt %, 6th patch",0 person
same,Number of subjects with ++ reactivity,"skin; 0.5 wt %, 6th patch",0 person
same,Number of subjects with ± reactivity,"skin; 0.5 wt %, 6th patch",0 person
same,Number of subjects with + reactivity,"skin; 0.5 wt %, 7th patch",0 person
same,Number of subjects with ++ reactivity,"skin; 0.5 wt %, 7th patch",0 person
same,Number of subjects with ± reactivity,"skin; 0.5 wt %, 7th patch",0 person
same,Number of subjects with + reactivity,"skin; 0.5 wt %, 8th patch",0 person
same,Number of subjects with ++ reactivity,"skin; 0.5 wt %, 8th patch",0 person
same,Number of subjects with ± reactivity,"skin; 0.5 wt %, 8th patch",0 person
same,Average reactivity,skin; 0.5 wt %,0
same,Number of subjects with + reactivity,"skin; 0.5 wt %, 9th patch",0 person
same,Number of subjects with ++ reactivity,"skin; 0.5 wt %, 9th patch",0 person
same,Number of subjects with ± reactivity,"skin; 0.5 wt %, 9th patch",0 person
same,Number of subjects with + reactivity,"skin; 1 wt %, 1st patch",0 person
same,Number of subjects with ++ reactivity,"skin; 1 wt %, 1st patch",0 person
same,Number of subjects with ± reactivity,"skin; 1 wt %, 1st patch",0 person
same,Number of subjects with + reactivity,"skin; 1 wt %, 2nd patch",0 person
same,Number of subjects with ++ reactivity,"skin; 1 wt %, 2nd patch",0 person
same,Number of subjects with ± reactivity,"skin; 1 wt %, 2nd patch",0 person
same,Number of subjects with + reactivity,"skin; 1 wt %, 3rd patch",0 person
same,Number of subjects with ++ reactivity,"skin; 1 wt %, 3rd patch",0 person
same,Number of subjects with ± reactivity,"skin; 1 wt %, 3rd patch",0 person
same,Number of subjects with + reactivity,"skin; 1 wt %, 4th patch",0 person
same,Number of subjects with ++ reactivity,"skin; 1 wt %, 4th patch",0 person
same,Number of subjects with ± reactivity,"skin; 1 wt %, 4th patch",0 person
same,Number of subjects with + reactivity,"skin; 1 wt %, 5th patch",0 person
same,Number of subjects with ++ reactivity,"skin; 1 wt %, 5th patch",0 person
same,Number of subjects with ± reactivity,"skin; 1 wt %, 5th patch",0 person
same,Number of subjects with + reactivity,"skin; 1 wt %, 6th patch",0 person
same,Number of subjects with ++ reactivity,"skin; 1 wt %, 6th patch",0 person
same,Number of subjects with ± reactivity,"skin; 1 wt %, 6th patch",0 person
same,Number of subjects with + reactivity,"skin; 1 wt %, 7th patch",0 person
same,Number of subjects with ++ reactivity,"skin; 1 wt %, 7th patch",0 person
same,Number of subjects with ± reactivity,"skin; 1 wt %, 7th patch",0 person
same,Number of subjects with + reactivity,"skin; 1 wt %, 8th patch",0 person
same,Number of subjects with ++ reactivity,"skin; 1 wt %, 8th patch",0 person
same,Number of subjects with ± reactivity,"skin; 1 wt %, 8th patch",0 person
same,Average reactivity,skin; 1 wt %,0
same,Number of subjects with + reactivity,"skin; 1 wt %, 9th patch",0 person
same,Number of subjects with ++ reactivity,"skin; 1 wt %, 9th patch",0 person
same,Number of subjects with ± reactivity,"skin; 1 wt %, 9th patch",0 person
same,Number of subjects with + reactivity,"skin; 3 wt %, 1st patch",0 person
same,Number of subjects with ++ reactivity,"skin; 3 wt %, 1st patch",0 person
same,Number of subjects with ± reactivity,"skin; 3 wt %, 1st patch",0 person
same,Number of subjects with + reactivity,"skin; 3 wt %, 2nd patch",0 person
same,Number of subjects with ++ reactivity,"skin; 3 wt %, 2nd patch",0 person
same,Number of subjects with ± reactivity,"skin; 3 wt %, 2nd patch",0 person
same,Number of subjects with + reactivity,"skin; 3 wt %, 3rd patch",0 person
same,Number of subjects with ++ reactivity,"skin; 3 wt %, 3rd patch",0 person
same,Number of subjects with ± reactivity,"skin; 3 wt %, 3rd patch",0 person
same,Number of subjects with + reactivity,"skin; 3 wt %, 4th patch",0 person
same,Number of subjects with ++ reactivity,"skin; 3 wt %, 4th patch",0 person
same,Number of subjects with ± reactivity,"skin; 3 wt %, 4th patch",0 person
same,Number of subjects with + reactivity,"skin; 3 wt %, 5th patch",0 person
same,Number of subjects with ++ reactivity,"skin; 3 wt %, 5th patch",0 person
same,Number of subjects with ± reactivity,"skin; 3 wt %, 5th patch",0 person
same,Number of subjects with + reactivity,"skin; 3 wt %, 6th patch",0 person
same,Number of subjects with ++ reactivity,"skin; 3 wt %, 6th patch",0 person
same,Number of subjects with ± reactivity,"skin; 3 wt %, 6th patch",0 person
same,Number of subjects with + reactivity,"skin; 3 wt %, 7th patch",0 person
same,Number of subjects with ++ reactivity,"skin; 3 wt %, 7th patch",0 person
same,Number of subjects with ± reactivity,"skin; 3 wt %, 7th patch",0 person
same,Number of subjects with + reactivity,"skin; 3 wt %, 8th patch",0 person
same,Number of subjects with ++ reactivity,"skin; 3 wt %, 8th patch",0 person
same,Number of subjects with ± reactivity,"skin; 3 wt %, 8th patch",0 person
same,Average reactivity,skin; 3 wt %,0
same,Number of subjects with + reactivity,"skin; 3 wt %, 9th patch",0 person
same,Number of subjects with ++ reactivity,"skin; 3 wt %, 9th patch",0 person
same,Number of subjects with ± reactivity,"skin; 3 wt %, 9th patch",0 person
same,skin reactivity (ICDRG criteria),"skin; content range 0.5 to 3 wt %, all subjects",−
same,cumulative irritation of the skin,"skin; content range 0.5 to 3 wt %, in words",no cumulative irritation of the skin
same,inhibition at 100 µg/mL,"IL-6 (Interleukin 6); Homo sapiens, 100 μg/ml, {1−(test sample−control)/(H2O2−control)}×100, control = a-bisabolol, read-out: Inhibitory Effect according to Equation 1, IL-6",72.3%
same,IL-6,IL-6 (Interleukin 6),198 pg/mL
same,effect on IL-6 increased by H2O2,IL-6 (Interleukin 6); in words,effect of reducing
same,inhibition at 100 µg/mL,"IL-8 (Interleukin 8); Homo sapiens, 100 μg/ml, {1−(test sample−control)/(H2O2−control)}×100, control = a-bisabolol, read-out: Inhibitory Effect according to Equation 1, IL-8",88.9%
same,IL-8,IL-8 (Interleukin 8),210 pg/mL
same,effect on IL-8 increased by H2O2,IL-8 (Interleukin 8); in words,effect of reducing
"α-bisabolol [a-bisabolol, reference compound]",PGE2,PGE2 (Prostaglandin E2),205 pg/mL
same,IL-6,IL-6 (Interleukin 6),180 pg/mL
same,IL-8,IL-8 (Interleukin 8),200 pg/mL
